Here are results for 35 compounds from patent US20250092056A1, “URACIL DERIVATIVES HAVING VIRUS REPLICATION INHIBITORY ACTIVITY AND PHARMACEUTICAL COMPOSITION COMPRISING THE SAME” (Shionogi & Co., Ltd., priority 2022, published 2025).

pEC50, pIC50: −log10 of the molar value. Where two headings read alike, the source gives them in different places.

The test system of one experiment is SARS-CoV-2. The experiment can be described thus: Cytopathic effect (CPE) suppression effect confirmation test using HEK293T/ACE2-TMPRSS2 cells. Particulars: Severe acute respiratory syndrome coronavirus 2, HEK-293T. It is filed as cell-based. (In general: Damage to the host cells serves as the signal in cytopathic effect assays.)
Experiment [1] concerns the target Recombinant SARS-CoV-2 3CL Protease (Severe acute respiratory syndrome coronavirus 2 (2019-nCoV) (SARS-CoV-2), UniProt P0DTD1). Description: biochemical. Particulars: 50% SARS-CoV-2 3CL protease inhibitory concentration; read-out: IC50. It is filed as biochemical.
Setting [2] is: 72 h, read-out: EC50 (50% SARS-CoV-2 infected cell death inhibitory concentration), class, HEK293T/ACE2-TMPRSS2 cells, CPE suppression, CellTiter-Glo 2.0 after 3 days culture.
The mark [3] stands for this setting: 72 h, HEK293T/ACE2-TMPRSS2 cells, CPE suppression, CellTiter-Glo 2.0 after 3 days culture, read-out: EC50 (50% SARS-CoV-2 infected cell death inhibitory concentration), class.
The mark [4] stands for this setting: 72 h, read-out: EC50 (50% SARS-CoV-2 infected cell death inhibitory concentration), HEK293T/ACE2-TMPRSS2 cells, CPE suppression, CellTiter-Glo 2.0 after 3 days culture.
Where [5] appears, read: 50% SARS-CoV-2 infected cell death inhibitory concentration, HEK293T/ACE2-TMPRSS2 cells, read-out: EC50.

In the case of `Cc1cncc(-n2c(=O)c(-c3ccc(F)c(Cl)c3)c(N3CC4(CCCO4)C3)n(CC#N)c2=O)n1` [Compound I-195], the pEC50 in the experiment on SARS-CoV-2 (setting [2]) is greater than 7.00. Also, the pIC50 in experiment [1] is greater than 8.00.

`Cc1cncc(-n2c(=O)c(-c3ccc(F)c(Cl)c3)c(N3CC(C)(C)C3)n(CC#N)c2=O)n1` [Compound I-196]: the pEC50 in the experiment on SARS-CoV-2 (setting [2]) is greater than 7.00. For the same compound, the pIC50 in experiment [1] was greater than 8.00.

For `Cc1cncc(-n2c(=O)c(-c3ccc(F)c(Cl)c3)c(N3CCC(F)(F)CC3)n(CC#N)c2=O)n1` [Compound I-197], the pEC50 in the experiment with SARS-CoV-2 (setting [2]) is greater than 7.00. For the same compound, the negative logarithm of the IC50 (pIC50) in experiment [1] is greater than 8.00.

Take `Cc1cncc(-n2c(=O)c(-c3ccc(F)c(Cl)c3)c(N3CC4(C3)CC(F)(F)C4)n(CC#N)c2=O)n1` [Compound I-198]: in the experiment on SARS-CoV-2 (setting [2]), the pEC50 is greater than 7.00. In addition, the pIC50 in experiment [1] was greater than 8.00.

For the compound `Cc1cncc(-n2c(=O)c(-c3ccc(F)c(Cl)c3)c(N3CCC(C(F)(F)F)CC3)n(CC#N)c2=O)n1` [Compound I-199], in the experiment on SARS-CoV-2 (setting [2]), the pEC50 was greater than 7.00. The pIC50 in experiment [1] is greater than 8.00.

As to `Cc1cc(-n2c(=O)c(-c3cc(Cl)cc(C(F)(F)F)c3)c(N3CCC(C(F)(F)F)CC3)n(CC#N)c2=O)cc(=O)[nH]1` [Compound I-200], in the experiment on SARS-CoV-2 (setting [3]), the pEC50 was greater than 7.00. Besides, the pIC50 in experiment [1] is 7.00 to 8.00.

Turning to `Cc1cc(-n2c(=O)c(-c3cc(Cl)cc(C(F)(F)F)c3)c(N3CC4(C3)CC(F)(F)C4)n(CC#N)c2=O)cc(=O)[nH]1` [Compound I-201], the pEC50 with SARS-CoV-2 (setting [2]) was 6.00 to 7.00. The pIC50 in experiment [1] is greater than 8.00.

Regarding `COc1ccc(Oc2c(Cc3cc(F)c(F)c(F)c3)c(=O)n(-c3cncc(C)c3)c(=O)n2CC#N)cc1` [Compound I-202], the pEC50 with SARS-CoV-2 (setting [4]) was 6.21. Besides, the pIC50 in experiment [1] is 7.43.

Turning to `Cc1cncc(-n2c(=O)c(Cc3cc(F)c(F)c(F)c3)c(N3CCCC3)n(CC#N)c2=O)c1` [Compound I-203], in the experiment with SARS-CoV-2 (setting [3]), the pEC50 is greater than 7.00. Besides, the pIC50 in experiment [1] was 7.00 to 8.00.

For `Cc1cncc(-n2c(=O)c(Cc3cc(F)c(F)c(F)c3)c(N3Cc4cn[nH]c4C3)n(CC#N)c2=O)c1` [Compound I-204], the pEC50 with SARS-CoV-2 (setting [2]) is greater than 7.00. Further, in experiment [1], the pIC50 is greater than 8.00.

In the case of `Cc1cncc(-n2c(=O)c(Cc3cc(F)c(F)c(F)c3)c(N3Cc4ccccc4C3)n(CC#N)c2=O)c1` [Compound I-205], the pEC50 in the experiment on SARS-CoV-2 (setting [4]) is 8.30. The pIC50 in experiment [1] is 9.12.

Turning to `N#CCn1c(N2CC3(C2)CC(F)(F)C3)c(-c2ccc(F)c(Cl)c2)c(=O)n(-c2cncc(C#N)n2)c1=O` [Compound I-206], in the experiment with SARS-CoV-2 (setting [5]), the pEC50 is greater than 7.00. Further, the pIC50 in experiment [1] was greater than 8.00.

As for `N#CCn1c(N2CC3(C2)CC(F)(F)C3)c(-c2ccc(F)c(Cl)c2)c(=O)n(-c2cncc(C(F)(F)F)n2)c1=O` [Compound I-207], the pEC50 in the experiment on SARS-CoV-2 (setting [5]) was greater than 7.00. Moreover, in experiment [1], the pIC50 was greater than 8.00.

With `N#CCn1c(N2CC3(C2)CC(F)(F)C3)c(-c2ccc(F)c(Cl)c2)c(=O)n(-c2cncc(C(F)F)n2)c1=O` [Compound I-208], the pEC50 with SARS-CoV-2 (setting [4]) was 8.15. Moreover, the pIC50 in experiment [1] was 8.74.

For `N#CCc1cncc(-n2c(=O)c(-c3ccc(F)c(Cl)c3)c(N3CC4(C3)CC(F)(F)C4)n(CC#N)c2=O)n1` [Compound I-209], the pEC50 with SARS-CoV-2 (setting [5]) is greater than 7.00. Moreover, the pIC50 in experiment [1] is greater than 8.00.

Consider `N#CCn1c(N2CC3(C2)CC(F)(F)C3)c(-c2ccc(F)c(Cl)c2)c(=O)n(CC#N)c1=O` [Compound I-210], for which the pEC50 with SARS-CoV-2 (setting [5]) is 6.00 to 7.00. Moreover, the pIC50 in experiment [1] was less than 7.00.

In the case of `Cc1cncc(-n2c(=O)c(-c3ccc(F)c(Cl)c3)c(C3=CCOCC3)n(CC#N)c2=O)c1` [Compound I-211], the pEC50 in the experiment with SARS-CoV-2 (setting [5]) is greater than 7.00. The pIC50 in experiment [1] is greater than 8.00.

As for `Cc1cncc(-n2c(=O)c(-c3ccc(F)c(Cl)c3)c(/C=C/c3ccc(C(F)(F)F)cc3)n(CC#N)c2=O)c1` [Compound I-212], the pEC50 with SARS-CoV-2 (setting [5]) is 6.00 to 7.00. In addition, in experiment [1], the pIC50 is 7.00 to 8.00.

As for `Cc1cncc(-n2c(=O)c(-c3cc(F)c(F)c(F)c3)c(CCC(C)(C)O)n(CC#N)c2=O)c1` [Compound I-213], in the experiment on SARS-CoV-2 (setting [5]), the pEC50 is greater than 7.00. Moreover, the negative logarithm of the IC50 (pIC50) in experiment [1] is greater than 8.00.

For the compound `N#CCn1c(N2CC3(C2)CC(F)(F)C3)c(-c2ccc(F)c(Cl)c2)c(=O)n(-c2cc(Cl)cnn2)c1=O` [Compound I-214], the pEC50 in the experiment on SARS-CoV-2 (setting [5]) was greater than 7.00. In experiment [1], the pIC50 is greater than 8.00.

Consider `COc1cnnc(-n2c(=O)c(-c3ccc(F)c(Cl)c3)c(N3CC4(C3)CC(F)(F)C4)n(CC#N)c2=O)c1` [Compound I-215], for which the pEC50 with SARS-CoV-2 (setting [5]) is greater than 7.00. Also, in experiment [1], the pIC50 was greater than 8.00.

For the compound `N#CCn1c(N2CC3(C2)CC(F)(F)C3)c(-c2ccc(F)c(Cl)c2)c(=O)n(-c2cc(C#N)cnn2)c1=O` [Compound I-216], the pEC50 with SARS-CoV-2 (setting [5]) was greater than 7.00. Also, the pIC50 in experiment [1] was greater than 8.00.

For the compound `N#CCn1c(N2CC3(C2)CC(F)(F)C3)c(-c2ccc(F)c(Cl)c2)c(=O)n(-c2cc(OCC(F)F)cnn2)c1=O` [Compound I-217], in the experiment with SARS-CoV-2 (setting [5]), the pEC50 was greater than 7.00. The pIC50 in experiment [1] is greater than 8.00.

As to `CNc1cnnc(-n2c(=O)c(-c3ccc(F)c(Cl)c3)c(N3CC4(C3)CC(F)(F)C4)n(CC#N)c2=O)c1` [Compound I-218], in the experiment with SARS-CoV-2 (setting [5]), the pEC50 was 5.30 to 6.00. The pIC50 in experiment [1] is greater than 8.00.

For the compound `CN(C)c1cnnc(-n2c(=O)c(-c3ccc(F)c(Cl)c3)c(N3CC4(C3)CC(F)(F)C4)n(CC#N)c2=O)c1` [Compound I-219], the pEC50 in the experiment on SARS-CoV-2 (setting [5]) is 6.00 to 7.00. Further, the pIC50 in experiment [1] was 7.00 to 8.00.

`Cc1cc(-n2c(=O)c(-c3ccc(F)c(Cl)c3)c(-c3ccc(C(F)F)cc3)n(CC#N)c2=O)cc(=O)[nH]1` [Compound I-220]: the pEC50 with SARS-CoV-2 (setting [5]) is 6.00 to 7.00. Besides, the pIC50 in experiment [1] is greater than 8.00.

For the compound `Cc1cc(-n2c(=O)c(-c3ccc(F)c(Cl)c3)c(N3CC4(C3)CC(F)(F)C4)n(CC#N)c2=O)[nH]c(=O)c1` [Compound I-221], the pEC50 in the experiment on SARS-CoV-2 (setting [5]) is 5.30 to 6.00. The pIC50 in experiment [1] was less than 7.00.

Consider `CC(C)N1CCN(c2c(-c3ccc(F)c(Cl)c3)c(=O)n(-c3cncc(Cl)c3)c(=O)n2CC#N)CC1=O` [Compound I-223], for which the pEC50 in the experiment on SARS-CoV-2 (setting [5]) is greater than 7.00. The pIC50 in experiment [1] is greater than 8.00.

As for `CCN1CCN(c2c(-c3ccc(F)c(Cl)c3)c(=O)n(-c3cncc(C)c3)c(=O)n2CC#N)CC1=O` [Compound I-224], the pEC50 with SARS-CoV-2 (setting [5]) is greater than 7.00. Moreover, the pIC50 in experiment [1] was greater than 8.00.

Turning to `Cc1cncc(-n2c(=O)c(-c3ccc(F)c(Cl)c3)c(N3C[C@@H]4C[C@H]3CO4)n(CC#N)c2=O)c1` [Compound I-225], the pEC50 with SARS-CoV-2 (setting [5]) is greater than 7.00. The pIC50 in experiment [1] is greater than 8.00.

As for `Cc1cncc(-n2c(=O)c(-c3ccc(F)c(Cl)c3)c(N3C[C@H]4C[C@@H]3CO4)n(CC#N)c2=O)c1` [Compound I-226], in the experiment on SARS-CoV-2 (setting [5]), the pEC50 is greater than 7.00. Moreover, in experiment [1], the pIC50 is greater than 8.00.

Consider `N#CCn1c(N2CC3(CCOC3)C2)c(C2=CCCCCC2)c(=O)n(-c2cncc(Cl)c2)c1=O` [Compound I-227], for which the pEC50 with SARS-CoV-2 (setting [5]) is greater than 7.00. Further, the pIC50 in experiment [1] was greater than 8.00.

For the compound `Cc1cnnc(-n2c(=O)c(-c3ccc(F)c(Cl)c3)c(N3CC4(C3)CC(F)(F)C4)n(CC#N)c2=O)c1` [Compound I-228], the pEC50 with SARS-CoV-2 (setting [5]) was greater than 7.00. In addition, the pIC50 in experiment [1] was greater than 8.00.

For `N#CCn1c(N2CC3(C2)CC(F)(F)C3)c(-c2ccc(F)c(Cl)c2)c(=O)n(-c2cc(C(F)(F)F)cnn2)c1=O` [Compound I-229], the pEC50 with SARS-CoV-2 (setting [5]) was greater than 7.00. The negative logarithm of the IC50 (pIC50) in experiment [1] was greater than 8.00.

On to `N#CCn1c(N2CC3(C2)CC(F)(F)C3)c(-c2ccc(F)c(Cl)c2)c(=O)n(-c2cncc(F)c2)c1=O` [Compound I-231], for which the pEC50 in the experiment with SARS-CoV-2 (setting [5]) was greater than 7.00. The negative logarithm of the IC50 (pIC50) in experiment [1] is greater than 8.00.

The pIC50 is the IC50 on a negative log10 scale, so that one unit is a factor of ten.
